US10221271B2, “Polymer/copper combination for targeted cancer therapy” (University of South Carolina, priority 2014, dated 2019)

What was measured:
[1] = system: intracellular GSH in NCI/ADR-Res, UMSCC 22A, and SKOV-3 cells; test: GSH-Glo Glutathione Assay, intracellular GSH level; type: cell-based; settings: BSO 1 mM, 8 h
Method: (§1) It has been reported that GSH levels in tumor tissues, such as ovarian, head and neck, breast, and lung cancer are higher than that in normal tissues. To probe whether the high GSH level is also prevail in cancer cells in vitro, GSH-Glo™ Glutathione Assay was employed. Briefly, tumor and normal cells were seeded in 96-well white plate (5,000 cells/well) overnight prior to the study. BSO (1 mM) or GSH-MME (5 mM) in culture medium was added. For control group, only fresh culture medium was added. Cells were incubated for 8 h, and the intracellular GSH concentration was measured by GSH-Glo™ Glutathione Assay according to the manufacturer's instruction.
(§2) Accordingly, glutathione-monomethylester (GSH-MME, 5 mM) and buthionine sulfoxamine (BSO, 1 mM) were employed to boost or deplete the intracellular GSH level in normal cells (NIH 3T3, BNL CL.2, KC, and MCF 10A) or cancer cells (NCI/ADR-Res, HCT 116, UMSCC 22A, SKOV-3, and MDA-MB-231), respectively.

SKOV-3 cells [2] = test: Cell cycle analysis by flow cytometry; type: cell-based; settings: 41.58 μM, 12 h, FIG. 14
Method: FIG. 14 presents cell cycle analysis of SKOV-3 cells after treated with 41.58 μM of PDA-PEG/Cu2+ for 12 h. Flow cytometry spectra (A) and quantitive analysis (B) of cell cycle. Data represent the means±SD, n=3. *p<0.01.
CDKN1C is an inhibitor for G1 cyclin/Cdk complexes and causes cell arrest in G1 phase. To investigate the effect of CDKN1C up-regulation after PDA-PEG/Cu^2+treatment, cell cycle analysis was employed.

SKOV-3 cells [3] = test: Cellular uptake of Cy5 labeled nanoparticles, flow cytometry and confocal microscopy; type: cell-based; settings: DTNB binds exofacial free thiol groups
Method: FIG. 9 presents […] spectra of SKOV-3 (left) and NIH 3T3 (right) cells. Cellular uptake assays were carried out 1 h after the addition of nanoparticles. Scale bars were 20 μm.
FIG. 10 presents the flow cytometry spectra of SKOV-3 (left) and NIH 3T3 (right) cells treated with Cy5 labeled PDA-PEG nanoparticles. Cellular uptake assays were carried out 1 h after the addition of nanoparticles.
PDA-PEG was modified by Cy5 for cellular uptake study. Briefly, cysteamine (0.11 mg, 5% PDA function group) in 500 μL DMSO was added dropwise into 20 mg PDA-PEG in 500 μL DSMO and the reaction mixture was kept at room temperature overnight. After overnight reaction, Cy5-NHS ester (0.39 mg in 390 μL DMSO) was added and the mixture was kept for reacting overnight, following a thoroughly dialysis towards DMSO to remove free Cy5. The concentration of Cy5 in the final product was measured by a microplate reader (SpectraMax® M5. Molecular Devices Inc) at λex640 and λem680.
To probe the mechanism for PDA-PEG/Cu^2+ selectively killing cancer cells, the cellular uptake of PDA-PEG and PDA-PEG/Cu^2+ nanoparticle was investigated with flow cytometry and confocal microscopy. […] Therefore, the uptake of PDA-PEG/Cu^2+ wasn't the reason for its cancer-cell-selectivity. 5,5′-Dithio-bis-(2-nitrobenzoic acid) (DTNB) is a compound binds the free thiol groups on the surface of cell membrane. […]

[4] = system: intracellular GSH in normal cells (NIH 3T3, BNL CL.2, KC, and MCF 10A); settings: GSH-MME 5 mM, 8 h
Method: as §1, §2

CCCCS(=N)(=O)CCC(N)C(=O)O (stereo not shown) [BSO, Buthionine sulfoximine]
intracellular GSH level [1]: declined GSH level

[Cl][Cu][Cl] [Cu^2+ ion, CuCl2]
effect on cell cycle distribution (SKOV-3 cells [2]): did not show any effect

O=C(O)c1cc(SSc2ccc([N+](=O)[O-])c(C(=O)O)c2)ccc1[N+](=O)[O-] [DTNB, 5,5′-Dithio-bis-(2-nitrobenzoic acid)]
effect on cellular uptake of PDA-PEG (SKOV-3 cells [3]): significantly inhibited

COC(=O)CNC(=O)[C@H](CS)NC(=O)CC[C@H](N)C(=O)O [GSH-MME, Glutathione monomethylester]
intracellular GSH level [4]: higher intracellular GSH level
